According to patent US20090069319A1, “IMIDAZOPYRIDINE ANALOGS AND THEIR USE AS AGONISTS OF THE WNT-BETA-CATENIN CELLULAR MESSAGING SYSTEM” (Wyeth, priority 2007, published 2009):

Experiment: Functional Dkk1-LRP5-TCF-Luciferase Assay in U2OS Cells (table columns: A=MAX FOLD Induction/DMSO CONTROL; B=fold induction @ 2.0 uM; C=fold induction @ 20.0 uM)
Format: cell-based, Human
Settings: Homo sapiens, U2OS; for fold induction at 2 µM: 2.0 uM compound; for fold induction at 20 µM: 20.0 uM compound
Method: Biological Evaluation—Functional Dkk1-LRP5-TCF-Luciferase Assay in U2OS Cells
U2OS Human Bone derived cells (Osteosarcoma) are grown in McCoy's 5A Medium (Modified), with L-glutamine (GIBCO Cat No. 16600-082)+1% Pen-Strep+5% FBS) plated at 1×10^7 cells/T175 cm flask. The next day, the cells are co-transfected overnight with the following plasmids: (a) Test reporter (16×TCF-TK-FireFly-Luci), (b) Internal Control Reporter (TK-Renilla-Luci), (c) Wnt3a and (d) Dkk1. GIBCO's Lipofectamine 2000 and OptiMEM were used for the transfection. After a minimum of 4 hr of transfection at 37° C., the plasmid-transfected cells are trypsinized, counted, and suspended in freezing medium (95% FBS+5% DMSO). The reporter cells are frozen at 1×10^7/ml concentrations, aliquoted into 0.5 ml or 2.5 ml/tube and stored at −70° C.
The following day, test compounds are added under HTS setup by Plate Track into 384 well plates (white, TC treated, Falcon plate) such that the final concentration of the compounds in 20 μL/well cell will be 5 μg/ml (final concentration of DMSO=0.25% and final compound concentration=20 μM). Vials of frozen reporter cells are thawed by warming the vial in a 37° C. water bath for 60-120 seconds with some shaking until the cells formed a suspension. The thawed cells are transferred into a cold 50 ml (or larger) tube and mixed well by gentle pipetting. The appropriate amount of cold Phenol Red Free RPMI medium-1640 (GIBCO, Cat # 11835-030) with L-glutamine is added, both with ˜5% FBS (GIBCO-BRL, Cat. # 16000-044), so that 20 μl of the final cell suspension will contain ˜5,000 cells. The cell dilution is done such that the final concentration of FBS was ˜5%. Diluted cells (20 μl) are added into each well in a 384 well plate. The plate is incubated at 37° C. under 5% CO2 for ˜20 h. Bright-Glo substrate, 2.5 μl/well is added, and the Fire Fly Luciferase is measured using VLUX (60 second exposure) immediately after the substrate was added. Test compounds are dissolved in DMSO (100%) and added to specified wells. Raw luciferase signal data obtained as relative luminescence units (RLUs) for the test compounds are normalized to the signal of the mean of the sample reporter cell plate with DMSO.
Active compounds have TCF-luciferase ratios of 2.5 fold or greater over DMSO. All compounds show a signal increase of at least 10% compared to a signal with only DMSO added.
A=MAX FOLD Induction/DMSO CONTROL
B=TCF ACTIVITY/DMSO CONTROL Fold induction @ 2.0 uM C=TCF ACTIVITY/DMSO CONTROL Fold induction @ 20.0 uM

With `CN(C)S(=O)(=O)N1CCC(n2cnc3c(-c4ccc5ccccc5c4)ccnc32)CC1` [N,N-dimethyl-4-[7-(2-naphthyl)-3H-imidazo[4,5-b]pyridin-3-yl]piperidine-1-sulfonamide] the fold induction at 2 µM was 1.19 and the fold induction at 20 µM was 1.46.
`Cc1cccc(-c2nc3c(-c4ccc5ccccc5c4)ccnc3n2C2CCNCC2)c1` [2-(3-methylphenyl)-7-(2-naphthyl)-3-piperidin-4-yl-3H-imidazo[4,5-b]pyridine] showed a fold induction at 2 µM of 1.91.
In the case of `c1ccc2cc(-c3ccnc4c3nc(-c3ccc5c(c3)OCCO5)n4C3CCNCC3)ccc2c1` [2-(2,3-dihydro-1,4-benzodioxin-6-yl)-7-(2-naphthyl)-3-piperidin-4-yl-3H-imidazo[4,5-b]pyridine], the fold induction at 2 µM is reported as 1.18.
For `Cn1cccc1-c1nc2c(-c3ccc4ccccc4c3)ccnc2n1C1CCNCC1` [2-(1-methyl-1H-pyrrol-2-yl)-7-(2-naphthyl)-3-piperidin-4-yl-3H-imidazo[4,5-b]pyridine], the fold induction at 2 µM was 1.52 and the fold induction at 20 µM was 0.01.
Work on `Brc1ccc(-c2nc3c(-c4ccc5ccccc5c4)ccnc3n2C2CCNCC2)cc1` [2-(4-bromophenyl)-7-(2-naphthyl)-3-piperidin-4-yl-3H-imidazo[4,5-b]pyridine] yielded a fold induction at 2 µM of 1.23.
For `Oc1cccc(-c2nc3c(-c4ccc5ccccc5c4)ccnc3n2C2CCNCC2)c1O` [3-[7-(2-naphthyl)-3-piperidin-4-yl-3H-imidazo[4,5-b]pyridin-2-yl]benzene-1,2-diol], the fold induction at 2 µM was 1.33.
`c1ccc2cc(-c3ccnc4c3nc(-c3ccnc5ccccc35)n4C3CCNCC3)ccc2c1` [4-[7-(2-naphthyl)-3-piperidin-4-yl-3H-imidazo[4,5-b]pyridin-2-yl]quinoline] gave a fold induction at 2 µM of 1.07.
With `Oc1cccc(-c2nc3c(-c4ccc5ccccc5c4)ccnc3n2C2CCNCC2)c1` [3-[7-(2-naphthyl)-3-piperidin-4-yl-3H-imidazo[4,5-b]pyridin-2-yl]phenol] the fold induction at 2 µM was 1.58.
Molecule `c1ccc2cc(-c3cnc4c(c3)nc(-c3c[nH]c5ccccc35)n4C3CCNCC3)ccc2c1` [2-(1H-indol-3-yl)-6-(2-naphthyl)-3-piperidin-4-yl-3H-imidazo[4,5-b]pyridine] has a fold induction at 2 µM of 1.11.
Work on `O=[N+]([O-])c1cccc(-c2nc3cc(-c4ccc5ccccc5c4)cnc3n2C2CCNCC2)c1` [6-(2-naphthyl)-2-(3-nitrophenyl)-3-piperidin-4-yl-3H-imidazo[4,5-b]pyridine] yielded a fold induction at 2 µM of 1.3.
Work on `C=Cc1cccc(-c2nc3c(-c4ccc5ccccc5c4)ccnc3n2C2CCNCC2)c1` [7-(2-naphthyl)-3-piperidin-4-yl-2-(3-vinylphenyl)-3H-imidazo[4,5-b]pyridine] yielded a fold induction at 2 µM of 1.44.
In the case of `Fc1ccc(-c2nc3c(-c4ccc5ccccc5c4)ccnc3n2C2CCNCC2)c(C(F)(F)F)c1` [2-[4-fluoro-2-(trifluoromethyl)phenyl]-7-(2-naphthyl)-3-piperidin-4-yl-3H-imidazo[4,5-b]pyridine], the fold induction at 2 µM is reported as 1.11.
In the case of `c1ccc2cc(-c3ccnc4c3nc(-c3ccc5ccccc5n3)n4C3CCNCC3)ccc2c1` [2-[7-(2-naphthyl)-3-piperidin-4-yl-3H-imidazo[4,5-b]pyridin-2-yl]quinoline], the fold induction at 2 µM is reported as 0.01 and the fold induction at 20 µM is reported as 1.01.
With `O=C(N1CCOCC1)N1CCC(n2c(=O)[nH]c3c(-c4ccc5ccccc5c4)ccnc32)CC1` [3-[1-(morpholin-4-ylcarbonyl)piperidin-4-yl]-7-(2-naphthyl)-1,3-dihydro-2H-imidazo[4,5-b]pyridin-2-one] the fold induction at 2 µM was 1.33 and the fold induction at 20 µM was 1.02.
In the case of `c1ccc2cc(-c3cnc4c(c3)nc(-c3cc5ccccc5s3)n4C3CCNCC3)ccc2c1` [2-(1-benzothien-2-yl)-6-(2-naphthyl)-3-piperidin-4-yl-3H-imidazo[4,5-b]pyridine], the fold induction at 2 µM is reported as 0.92.
For `CC(C)(C)c1ccc(-c2nc3c(-c4ccc5ccccc5c4)ccnc3n2C2CCNCC2)cc1` [2-(4-tert-butylphenyl)-7-(2-naphthyl)-3-piperidin-4-yl-3H-imidazo[4,5-b]pyridine], the fold induction at 2 µM was 1.88.
